Source: patent US20150031102A1, “METHODS AND COMPOSITIONS FOR ENHANCED PRODUCTION OF BUTANOL BY CLOSTRIDIA” (Butrolix LLC, priority 2012, published 2015)
Marks after values point to notes of the source that are not given here.

Tested on: C. acetobutylicum
Assay: Continuous culture, 2.5 L, dilution rate 0.01 per hour, 20 days (butanol, residual glucose, optical density, pH, yield, productivity)
Assay type: cell-based, Clostridium acetobutylicum
Conditions: for Optical density (600 nm): 50 nM BP110517 and its control; for Productivity / Yield / Butanol: 50 nM peptide, Table 53; for Butanol: average ± SD of triplicate samples; for Average Butanol / Average Glucose: Treated (50 nM)
Description: Lastly, 2.5 L continuous culture studies were conducted using the optimum peptide treatment level that was determined by the sequential batch transfer experiments. An untreated and a peptide-treated culture were grown in parallel, identical vessels with identical dilution rates for 20 days. The continuous cultures were initiated by inoculating 2.25 L of sterile medium in each culture vessel using 250 mL of peptide-treated and untreated batch cultures that had been grown for 24 hours. The batch cultures used as inoculum were the third of sequential batch transfer cultures, which made inoculation of the continuous cultures the fourth sequential transfer. After inoculation, the continuous cultures were grown for 24 hours before beginning to feed fresh medium at a rate of 0.01 volumes per hour. Triplicate samples were taken from each continuous culture every 24 hours. Optical density of the replicates was measured and culture supernatants were recovered following centrifugation and analyzed later for butanol and residual glucose concentrations. The analyses were used to calculate yield and productivity of the cultures.
Clostridium acetobutylicum strain ATCC 824 was used in all experiments and the growth medium used for sequential batch transfer, time course, and continuous culture experiments contained yeast extract, casamino acids, L-cysteine, L-asparagine, phosphate buffer, trace minerals, and 6% glucose. What are believed to be quorum-sensing peptides that were used in the experiments were chemically synthesized peptides SEQ ID NO: 143 (amino acid sequence: SYPGWSW) and SEQ ID NO: 144 (amino acid sequence: ILILISG). Routine growth of the bacteria as well as the sequential batch and time course experiments were conducted in a Form a Scientific Model 1029 anaerobic gas chamber at 32° C. Continuous cultures were performed at 32° C. using duplicate New Brunswick Scientific BioFlo 3000 apparati with a dilution rate of 0.01 volume per hour, 75 rpm agitation, and nitrogen gas sparging. Optical density of culture samples was measured at 600 nm in a Beckman DU 600 series spectrophotometer and glucose was analyzed using a YSI Model 2700 Select Biochemistry Analyzer with internal glucose calibration. Butanol concentrations were determined by measuring experimental and standard samples using a Varian Saturn 3 Gas Chromatograph/Mass Spectrometer and calculating butanol concentrations using standard curves.
Data from continuous cultures using a 6% glucose medium in vessels with a working volume of 2.5 L run at a dilution rate of 0.01 per hour. Two vessels were run in parallel, one of which was treated with 50 nM of peptide SEQ ID NO: 143 and the other was untreated. The vessels were sparged continuously with nitrogen gas to maintain anaerobic conditions and were agitated at 75 rpm. On Day 0, the vessels were inoculated with a 1/10 volume (250 mL) of overnight cultures that were either treated with peptide or untreated, and that were the third transfer of the cultures, which made inoculation of the continuous cultures the fourth transfer. Triplicate samples were collected aseptically from each vessel immediately after inoculation and every 24 hours thereafter. The cultures were allowed to grow for 24 hours prior to beginning to feed fresh medium, and were maintained for 20 days each, without pH control. The optical density of each sample was measured immediately at 600 nm, the samples were centrifuged to remove cells, and the cell-free supernatants were frozen for later analysis. A representative experiment is shown in FIG. 19 and Tables 34 and 35.
Using the optimum peptide treatment level that was determined by the sequential batch transfer experiments, 2.5 L continuous culture studies were conducted. An untreated and a peptide-treated culture were grown in parallel, identical vessels using the same dilution rates for 20 days for each of the peptides BP110517 and BP1106213. […]

[1] = 50 nM BP110517, last five days of culture
[2] = 24 hour period preceding day 10
[3] = 24 hour period preceding day 11
[4] = 24 hour period preceding day 12
[5] = 24 hour period preceding day 13
[6] = 24 hour period preceding day 14
[7] = 24 hour period preceding day 15
[8] = 24 hour period preceding day 16
[9] = 24 hour period preceding day 17
[10] = 24 hour period preceding day 18
[11] = 24 hour period preceding day 19
[12] = 24 hour period preceding day 20

Substance: SYPGWSW [peptide SEQ ID NO: 143]
- Butanol content compared with the control (50 nM BP110517, between days 5 and 9): significantly more butanol than the control
- Butanol content compared with the control [1]: significantly greater than the control
- Butanol level lower than earlier in the culture period [1]: roughly 75%
- Optical density (600 nm) (after day 13, recovered after day 17): less than 0.500
- Optical density (600 nm) (first 9 days): around 2.0
- Productivity (24 hour period preceding day 1): 0.53 g Butanol/L-h
- Yield (24 hour period preceding day 1): 0.19 g Butanol/g Glucose
- Productivity (24 hour period preceding day 2): −0.17 g Butanol/L-h
- Yield (24 hour period preceding day 2): −0.28 g Butanol/g Glucose
- Productivity (24 hour period preceding day 3): 0.07 g Butanol/L-h
- Yield (24 hour period preceding day 3): 0.11 g Butanol/g Glucose
- Productivity (24 hour period preceding day 4): 0.29 g Butanol/L-h
- Yield (24 hour period preceding day 4): 0.46 g Butanol/g Glucose
- Productivity (24 hour period preceding day 5): 0.24 g Butanol/L-h
- Yield (24 hour period preceding day 5): 0.39 g Butanol/g Glucose
- Productivity (24 hour period preceding day 6): 0.07 g Butanol/L-h
- Yield (24 hour period preceding day 6): 0.11 g Butanol/g Glucose
- Productivity (24 hour period preceding day 7): 0.14 g Butanol/L-h
- Yield (24 hour period preceding day 7): 0.23 g Butanol/g Glucose
- Productivity (24 hour period preceding day 8): 0.06 g Butanol/L-h
- Yield (24 hour period preceding day 8): 0.10 g Butanol/g Glucose
- Productivity (24 hour period preceding day 9): 0.07 g Butanol/L-h
- Yield (24 hour period preceding day 9): 0.11 g Butanol/g Glucose
- Productivity [2]: 0.00 g Butanol/L-h
- Yield [2]: 0.01 g Butanol/g Glucose
- Productivity [3]: 0.20 g Butanol/L-h
- Yield [3]: 0.33 g Butanol/g Glucose
- Productivity [4]: 0.02 g Butanol/L-h
- Yield [4]: 0.04 g Butanol/g Glucose
- Productivity [5]: −0.11 g Butanol/L-h
- Yield [5]: −0.18 g Butanol/g Glucose
- Productivity [6]: 0.00 g Butanol/L-h
- Yield [6]: 0.00 g Butanol/g Glucose
- Productivity [7]: 0.03 g Butanol/L-h
- Yield [7]: 0.05 g Butanol/g Glucose
- Productivity [8]: 0.11 g Butanol/L-h
- Yield [8]: 0.17 g Butanol/g Glucose
- Productivity [9]: −0.01 g Butanol/L-h
- Yield [9]: −0.02 g Butanol/g Glucose
- Productivity [10]: 0.01 g Butanol/L-h
- Yield [10]: 0.01 g Butanol/g Glucose
- Productivity [11]: 0.06 g Butanol/L-h
- Yield [11]: 0.09 g Butanol/g Glucose
- Productivity [12]: 0.01 g Butanol/L-h
- Yield [12]: 0.01 g Butanol/g Glucose
- Butanol (day 0): 0.9 ± 0.0 g/L
- Butanol (day 1): 12.8 ± 4.4 g/L
- Butanol (day 2): 5.5 ± 0.7 g/L
- Butanol (day 3): 5.8 ± 1.7 g/L
- Butanol (day 4): 11.2 ± 5.3 g/L
- Butanol (day 5): 14.2 ± 0.3^c g/L
- Butanol (day 6): 12.3 ± 0.6^c g/L
- Butanol (day 7): 12.6 ± 0.0^c g/L
- Butanol (day 8): 11.0 ± 0.4 g/L
- Butanol (day 9): 9.9 ± 0.3^c g/L
- Butanol (day 10): 7.6 ± 0.3 g/L
- Butanol (day 11): 10.6 ± 0.7 g/L
- Butanol (day 12): 8.5 ± 2.8 g/L
- Butanol (day 13): 3.6 ± 0.2 g/L
- Butanol (day 14): 2.7 ± 0.4 g/L
- Butanol (day 15): 2.8 ± 0.6 g/L
- Butanol (day 16): 4.7 ± 0.1^c g/L
- Butanol (day 17): 3.3 ± 0.2^c g/L
- Butanol (day 18): 2.7 ± 0.0^c g/L
- Butanol (day 19): 3.4 ± 0.1^c g/L
- Butanol (day 20): 2.7 ± 0.2^c g/L
- Effect on butanol yield and productivity (BP110517, continuous cultures (summary of findings)): increased butanol yield and productivity
- Average Butanol (day 0): 0.91 g/L
- Average Glucose (day 0): 66.1 g/L
- Average Butanol (day 1): 12.81 g/L
- Average Glucose (day 1): 28.2 g/L
- Average Butanol (day 2): 5.54 g/L
- Average Glucose (day 2): 3.3 g/L
- Average Butanol (day 3): 5.78 g/L
- Average Glucose (day 3): 3.1 g/L
- Average Butanol (day 4): 11.22 g/L
- Average Glucose (day 4): 2.4 g/L
- Average Butanol (day 5): 14.19 g/L
- Average Glucose (day 5): 0.0 g/L
- Average Butanol (day 6): 12.27 g/L
- Average Glucose (day 6): 0.0 g/L
- Average Butanol (day 7): 12.64 g/L
- Average Glucose (day 7): 0.4 g/L
- Average Butanol (day 8): 10.95 g/L
- Average Glucose (day 8): 0.0 g/L
- Average Butanol (day 9): 9.89 g/L
- Average Glucose (day 9): 2.3 g/L
- Average Butanol (day 10): 7.55 g/L
- Average Glucose (day 10): 13.4 g/L
- Average Butanol (day 11): 10.55 g/L
- Average Glucose (day 11): 6.1 g/L
- Average Butanol (day 12): 8.46 g/L
- Average Glucose (day 12): 0.0 g/L
- Average Butanol (day 13): 3.63 g/L
- Average Glucose (day 13): 2.0 g/L
- Average Butanol (day 14): 2.73 g/L
- Average Glucose (day 14): 14.2 g/L
- Average Butanol (day 15): 2.82 g/L
- Average Glucose (day 15): 23.8 g/L
- Average Butanol (day 16): 4.71 g/L
- Average Glucose (day 16): 29.2 g/L
- Average Butanol (day 17): 3.32 g/L
- Average Glucose (day 17): 30.4 g/L
- Average Butanol (day 18): 2.68 g/L
- Average Glucose (day 18): 40.1 g/L
- Average Butanol (day 19): 3.41 g/L
- Average Glucose (day 19): 33.8 g/L
- Average Butanol (day 20): 2.69 g/L
- Average Glucose (day 20): 40.3 g/L
